Laboratory results reported in patent publication US20100074896A1, “ANTAGONISTS OF PGE2 EP3 RECEPTORS” (The Johns Hopkins University, priority 2006, published 2010).

Tests used:
EP3 receptor = molecular target: T1, EP3 receptor (Mus musculus, UniProt P30557); details: cited from earlier work; for Ki: read-out: Affinity for the EP3 receptor
T1 sequence (P30557 1-365): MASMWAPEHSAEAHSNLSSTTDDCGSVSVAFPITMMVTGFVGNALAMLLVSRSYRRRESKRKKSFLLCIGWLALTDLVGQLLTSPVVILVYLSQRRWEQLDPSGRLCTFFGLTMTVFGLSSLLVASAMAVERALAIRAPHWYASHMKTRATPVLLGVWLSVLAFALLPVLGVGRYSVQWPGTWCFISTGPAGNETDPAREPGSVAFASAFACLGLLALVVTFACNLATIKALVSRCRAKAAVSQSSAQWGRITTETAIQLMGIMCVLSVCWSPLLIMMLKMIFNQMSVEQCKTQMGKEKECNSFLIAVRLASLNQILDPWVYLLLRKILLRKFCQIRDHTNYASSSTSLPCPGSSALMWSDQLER

rats = details: single ICV injection, 20 nmol; cited from earlier work
mice [1] = test: Core body temperature by intra-abdominal radiofrequency probe; format: in vivo, mouse; details: mice without MCAO, room temperature, 4-day experiment
Experimental: A third cohort of mice was implanted with intra-abdominal radiofrequency probes [IPTT-200, Bio. Medic. Data System (BMDS), Seaford, Del.] 7 days before injection of ONO-AE-248 (n=5) or vehicle (n=5). Core temperature was sampled every 10 min for the first 90 min after injection, and then once daily for 4 days at room temperature via receivers (The DAS-5002 Notebook System™; BMDS). This telemetry system minimizes stress and allows temperature control and monitoring in freely moving animals.

[2] = test system: mouse model of middle cerebral artery (MCA) occlusion; test: MCAO (90 min) and reperfusion, hemispheric infarct volume; format: in vivo; details: 90 min occlusion, 4 days reperfusion
Experimental: (§1) Mice were anesthetized with 3.0% halothane and maintained with 1.0-1.5% continuous flow of halothane in oxygen-enriched air. Then the mice were mounted on a stereotactic frame and injected with 0.2 μl of different doses of ONO-AE-248 (0.5 nmol, 2.5 nmol, or 5.0 nmol) or vehicle (DMSO) via a 1μl Hamilton syringe (Reno, Nev.) into the right lateral ventricle as described previously (Ahmad et al., 2006a). After the injection, the needle was retracted slowly, the hole was plugged with bone wax, and the wound was sutured. Mice were then either transferred to another setup for the MCAO procedure or left in place for NMDA injection (see below).
During the MCAO procedure (FIG. 1, Illustration A), mouse rectal temperature was monitored and maintained at 37.0±0.5° C. by a heating pad, and anesthesia was maintained with continuous flow of halothane in oxygen-enriched air via a nose cone. Relative CBF was monitored with laser-Doppler flowmetry (Moor Instruments, Devon, England) by a flexible fiber optic probe affixed to the skull over the parietal cortex supplied by the MCA (2 mm posterior and 6 mm lateral to the bregma). MCAO was carried out under aseptic conditions with a silicone-coated nylon monofilament as described previously (Shah et al., 2006). […]
Four days after MCAO surgery, mice (n=9/dose) were deeply anesthetized, and their brains were harvested and sliced coronally into five 2-mm-thick sections. […] The area of infarcted brain, identified by the lack of TTC staining, was measured on the rostral and caudal surfaces of each slice and numerically integrated across the thickness of the slice to obtain an estimate of infarct volume in each slice (SigmaScan Pro, SPSS, Port Richmond, Calif., USA). Volumes from all five slices were summed to calculate total infarct volume over the entire hemisphere and expressed as a percentage of the volume of the contralateral structure. […] The corrected infarct volume was calculated as: volume of contralateral hemisphere−(volume of ipsilateral hemisphere−volume of infarct).

mice [3] = test: Analysis of physiological parameters (arterial blood pH, PaO2, PaCO2, MABP) around MCAO; format: in vivo, mouse; details: before ischemia, during ischemia, during reperfusion; all doses
Experimental: Measurement of physiological parameters was carried out in a group of mice separate from that used to assess infarct volume (FIG. 1, Illustration B). Arterial blood samples collected via femoral catheter were analyzed for pH, PaO2, and PaCO2 before the occlusion, during occlusion, and 1 h after the occlusion. MABP was measured at the same time points by a pressure transducer connected to the femoral catheter.

EP3 = details: CHO cell lines; cited from earlier work
[4] = test system: NMDA-induced brain lesion in C57B1/6 WT mice; test: NMDA-induced brain lesion volume (excitotoxicity); format: in vivo, mouse; details: 15 nmol NMDA intrastriatal, 48 h
Experimental: as §1
To investigate the effect of NMDA toxicity in mice lacking the EP3 receptor, WT (n=7) and EP3-/- (n=8) mice were injected in the right striatum with 15 nmol NMDA or vehicle in a volume of 0.3 μl 20 min after being injected with ONO-AE-248, as reported earlier (Ahmad et al., 2006a). After injection, the hole was blocked and the wound sutured, as described above. After the surgical procedures, the animals were transferred to a temperature-regulated chamber to recover from anesthesia. Throughout the stereotactic procedures the rectal temperature of mice was monitored and maintained at 37.0±0.5° C.
At 48 h after NMDA injection, weight and rectal temperature of each mouse was recorded. Then, mice were transcardially perfused with phosphate-buffered saline, followed by 4% paraformaldehyde (pH 7.2), under deep anesthesia. Brains were immediately removed, post-fixed in paraformaldehyde overnight, cryoprotected in sucrose (30%) for 3 days, and frozen in 2-methyl butane (pre-cooled over dry ice). Brain sections cut on a cryostat were collected on microscope slides and stained with Cresyl Violet to estimate lesion volume. Images of the brain sections were taken and analyzed with SigmaScan Pro 5.0 software (Systat Software Inc., Richmond, Calif.) as described previously (Ahmad et al., 2006b).

EP1 receptor = molecular target: T2, EP1 receptor (Mus musculus, UniProt P35375); details: read-out: Affinity for the EP1 receptor; cited from earlier work
T2 sequence (P35375 1-405): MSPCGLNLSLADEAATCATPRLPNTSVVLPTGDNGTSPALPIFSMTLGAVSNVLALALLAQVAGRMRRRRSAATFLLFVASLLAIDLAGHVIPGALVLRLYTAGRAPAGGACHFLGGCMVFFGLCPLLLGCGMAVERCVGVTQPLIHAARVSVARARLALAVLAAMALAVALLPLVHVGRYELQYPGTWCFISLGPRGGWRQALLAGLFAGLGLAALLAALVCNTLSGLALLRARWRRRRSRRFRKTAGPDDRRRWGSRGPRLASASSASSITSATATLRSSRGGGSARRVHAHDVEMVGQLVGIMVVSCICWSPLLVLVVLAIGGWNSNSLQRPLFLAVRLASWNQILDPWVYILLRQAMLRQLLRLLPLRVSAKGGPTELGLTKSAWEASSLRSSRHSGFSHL

| SMILES | Specificity for EP3 over EP1 (EP3 receptor; EP3 versus EP1) [times] | Effect on body temperature (rats) | Effect on core body temperature (mice [1]) | Infarct volume increase as compared with the vehicle-treated group ([2]; 0.5 nmol ICV before MCAO, not statistically significant) [%] | Infarct volume increase as compared with the vehicle-treated group ([2]; 2.5 nmol ICV before MCAO, statistically significant) [%] | Infarct volume increase as compared with the vehicle-treated group ([2]; 5.0 nmol ICV before MCAO, statistically significant) [%] | MABP versus vehicle group (mice [3]) | PaCO2 versus vehicle group (mice [3]) | PaO2 versus vehicle group (mice [3]) | pH (arterial blood) versus vehicle group (mice [3]) | Effect on forskolin-induced increase in cAMP (EP3) | Effect on NMDA-induced toxicity ([4]; 0.5 nmol ICV pretreatment) | Effect on NMDA-induced lesion size ([4]; 2.5 nmol ICV pretreatment, p<0.02) | Effect on NMDA-induced lesion size ([4]; 5 nmol ICV pretreatment, p<0.001) | Ki (EP3 receptor) [nM] | Ki (EP1 receptor) [nM] |
| --- | --- | --- | --- | --- | --- | --- | --- | --- | --- | --- | --- | --- | --- | --- | --- | --- |
| CCCCC[C@@H](/C=C/[C@H]1[C@H](OC)CC(=O)[C@@H]1C/C=C\CCCC(=O)O)OC [ONO-AE-248] | 1333 | mild hyperthermia was induced | did not affect core body temperature | 17 | 34 | 38 | No statistically significant differences | No statistically significant differences | No statistically significant differences | No statistically significant differences | prevented the forskolin-induced increase in cAMP | did not affect | significantly and dose-dependently increased | significantly and dose-dependently increased |  |  |
| O=C(O)CCC/C=C\C[C@H]1C(=O)C[C@@H](O)[C@@H]1/C=C/[C@@H](O)CCc1ccccc1 [17-phenyl trinor PGE2] |  |  |  |  |  |  |  |  |  |  |  |  |  |  | 21 | 14 |
| CS(=O)(=O)NC(=O)CCC/C=C\C[C@H]1C(=O)C[C@@H](O)[C@@H]1/C=C/[C@@H](O)COc1ccccc1 [sulprostone] |  |  |  |  |  |  |  |  |  |  |  |  |  |  | 0.6 | 4 |
